# Results: patent US20040071687A1, “Adult stem cell recruitment” (priority 2002, published 2004)
# B1: G-CSF: recombinant granulocyte colony stimulating factor (R&D Systems), s.c. daily day 0-5 (protein, UniProt P09919 31-207, looked up)
# Granulocyte …: TPLGPASSLPQSFLLKCLEQVRKIQGDGAALQEKLVSECATYKLCHPEELVLLGHSLGIPWAPLSSCPSQALQLAGCLSQLHSGLFLYQGLLQALEGISPELGPTLDTLQLDVADFATTIWQQMEELGMAPALQPTQGAMPAFASAFQRRAGGVLVASHLQSFLEVSYRVLRHLAQP
# How the values were obtained:
# [1] = system: MMP-9−/− and MMP-9+/+ mice; assay: 5-FU myelosuppression: survival and hematopoietic recovery
# Method: Administration of 5-FU. MMP-9^−/− and MMP-9^+/+ mice were injected with the cell cycle cytotoxic agent 5-fluorouracil (5-FU) to deplete cycling hematopoietic cells. In particular, 250 mg/kg body weight 5-FU (Pharmacia & Upjohn Company) was administered intravenously (i.v.). At specified time points, mice were sacrificed. Femurs were flushed and bone marrow cells were used for cell cycle analysis or subjected to magnetic bead isolation (MACS) (Miltenyi Biotec). Lineage-negative bone marrow cells were isolated by MACS after labeling the cells with a depletion cocktail of lineage-specific monoclonal antibodies (mAbs), including CD5, CD45R, CD11b, Gr-1, TER119, 7/4 (Stem Cell Technology, Canada). Lin^− cells were MACS isolated with mAb against Sca-1. […] For cell cycle analysis whole bone marrow cells of MMP-9^−/− and MMP-9^+/+ mice were labeled with Sca-1-FITC. Lin^−Sca-1^+bone marrow cells were labeled with c-Kit-FITC. Labeled bone marrow cells and Lin^−Sca-1^+cells were fixed in ice-cold ethanol for 30 min. After RNAase treatment (Sigma, MO), cells were stained with propidium iodide (Molecular-Probes, Oregon). The DNA content of Sca-1 and Lin^−Sca-1^+c-Kit^+ cells was determined by FACS (Coulter flow cytometer). […]
# Peripheral blood analysis. Blood was collected with capillary pipettes by retro-orbital bleeding and WBC counts were determined by using a hemocytometer. […]
# Sca-1+ bone marrow cells = assay: Cell cycle analysis of bone marrow Sca-1+ cells after 5-FU; assay type: in vivo, mice
# Method: Administration of 5-FU. MMP-9^−/− and MMP-9^+/+ mice were injected with the cell cycle cytotoxic agent 5-fluorouracil (5-FU) to deplete cycling hematopoietic cells. In particular, 250 mg/kg body weight 5-FU (Pharmacia & Upjohn Company) was administered intravenously (i.v.). At specified time points, mice were sacrificed. Femurs were flushed and bone marrow cells were used for cell cycle analysis or subjected to magnetic bead isolation (MACS) (Miltenyi Biotec). Lineage-negative bone marrow cells were isolated by MACS after labeling the cells with a depletion cocktail of lineage-specific monoclonal antibodies (mAbs), including CD5, CD45R, CD11b, Gr-1, TER119, 7/4 (Stem Cell Technology, Canada). Lin^− cells were MACS isolated with mAb against Sca-1. […] For cell cycle analysis whole bone marrow cells of MMP-9^−/− and MMP-9^+/+ mice were labeled with Sca-1-FITC. Lin^−Sca-1^+bone marrow cells were labeled with c-Kit-FITC. Labeled bone marrow cells and Lin^−Sca-1^+cells were fixed in ice-cold ethanol for 30 min. After RNAase treatment (Sigma, MO), cells were stained with propidium iodide (Molecular-Probes, Oregon). The DNA content of Sca-1 and Lin^−Sca-1^+c-Kit^+ cells was determined by FACS (Coulter flow cytometer).
# human CD34+ cells = assay: In vitro transmigration through reconstituted basement membranes (Matrigel transwell); assay type: cell-based; conditions: for migration of CD34+ cells: Matrigel-coated transwell, SDF-1 100 ng/ml in lower chamber, inhibitor in both chambers (CGS 27023A 1 nM; 5-phenyl-1,10-phenanthroline 1 mM)
# Method: Substrate zymography. Supernatants from human MACS-isolated CD34^+ (5×10^3) cells were collected after overnight incubation in serum-free medium with/without SDF-1 (150 ng/ml R&D-Systems) or VEGF (50 ng/ml, PeproTech). MMP activity was determined by gelatin zymography (Lane et al., 2000).
# In vitro transmigration through reconstituted basement membranes. […] CD34^+ cells were added to 8 μm pore Matrigel-coated (BD) transwell inserts (Costar, Cambridge Mass.). […] Transmigrated cells were quantified, placed in a clonogenic assay and in long-term cultures to measure the number of CAFC and LTC-IC (Jo et al., 2000).
# [2] = system: white blood cells and hematopoietic progenitors (CFU-Cs); assay: Mobilization of white blood cells and progenitors (peripheral blood analysis, CFU-C); assay type: in vivo, mice; conditions: for mobilization of mature white blood cells and hematopoietic progenitors (CFU-Cs): plasma elevation in MMP-9+/+ mice, but not in MMP-9−/− mice
# Method: (§1) Mobilization of bone marrow-derived cells by adenovirus delivered factors. […] The vector was injected i.v. as a single dose. Recombinant G-CSF (R&D Systems, MN) was administered subcutaneously daily from day 0-5 at 50 μg/kg body weight. Recombinant murine KitL (peproTech, NJ) was injected s.c. twice a day at 100 or 200 μg/kg body weight.
# Peripheral blood analysis. Blood was collected with capillary pipettes by retro-orbital bleeding and WBC counts were determined by using a hemocytometer. Peripheral blood mononuclear cells (PBMCs) were isolated from heparinized blood after centrifugation over a discontinuous gradient using Lympholyte-M (Cedarlane, Ontario, Canada).
# Progenitor assay. Peripheral blood mononuclear cells (10^5) were plated in Iscove's modified Dulbecco's medium (IMDM) containing 1.2% methylcellulose (Fisher Scientific, NJ), 30% FBS, 5×10^−3M 2-mercaptoethanol 2 mM L-glutamine, 0.5 mM hemin (Sigma), murine KitL (20 ng/ml), human erythropoietin (6U/ml) and murine IL-3 (50 ng/ml). Colonies (>50 cells) were scored after 7 days (37° C., 5% CO2).
# [3] = system: MS-5 murine stromal cells; assay: Release of sKitL from stromal cell line cultures; assay type: cell-based; conditions: MS-5 cells, serum-free medium, 24 hours
# Method: Stromal cell line cultures. […] Immunoassay for chemokines and cytokines. Plasma levels of SDF-1, VEGF, and sKitL were measured using commercially available ELISA (R&D Systems).
# [4] = system: lethally irradiated syngeneic recipients; assay: CFU-S assay; assay type: in vivo; conditions: chemokine/cytokine-treated SCID mice given metalloproteinase inhibitor
# Method: CFU-S assay. Mobilized peripheral blood mononuclear cells (10^5/mouse) of chemokine-treated SCID mice were injected i.v. into lethally irradiated syngeneic recipients (9 Gy). Spleens were removed 12 days later and fixed in Bouin's solution. The number of macroscopic spleen colonies was scored.
# [5] = system: lethally irradiated syngeneic mice; assay: Bone marrow repopulating assay with mobilized PBMCs; assay type: in vivo; conditions: for long-term engraftment of lethally irradiated syngeneic mice transplanted with mobilized PBMCs: PBMCs from SCID mice given AdSDF-1, AdVEGF or G-CSF, no MPI, n=12
# Method: Bone marrow repopulating assay. Chemo/cytokine-mobilized PBMCs from SCID mice treated with/without MPI were collected on day 7. PBMCs from G-CSF-treated MMP-9^−/− and MMP-9^+/+ mice were collected on day 5. Mobilized PBMCs (10^5) were injected into lethally irradiated syngeneic animals (9.5 Gy). Survival was monitored.
# sKitL = assay: Plasma sKitL by ELISA after adenoviral vector or cytokine treatment; assay type: in vivo; conditions: MMP-9+/+ mice, five days after treatment
# Method: as §1
# Immunoassay for chemokines and cytokines. Plasma levels of SDF-1, VEGF, and sKitL were measured using commercially available ELISA (R&D Systems).
# MMP-9 = assay: Immunohistochemistry for MMP-9 in bone marrow sections; assay type: in vivo; conditions: wild type mice; SDF-1 and VEGF by adenoviral vector, G-CSF recombinant
# Method: Immunohistochemistry. Bone marrow sections were deparaffinized, rehydrated through an alcohol series immersed in 0.1% H2O2 and blocked using an Avidin and Biotin blocking kit (Vector, Burlingame, Calif.). For MMP-9 staining, the M.O.M. immunodetection kit (Vector) was used as recommended. Sections were incubated with MMP-9 mAb (clone 7-11C, Oncogene, MA) for 30 min, washed in PBS, incubated with a biotinylated horse anti-mouse IgG and incubated for 5 min with A&B reagents (Vector). Von Willebrand Factor (vWF) immunohistochemistry was performed on deparaffinized sections, treated with 3% H2O2, incubated with 0.05% Pronase E (Sigma). Sections were stained with anti-human vWF/HRP (Dako). Sections were developed with 3,3′-diaminobenzidine substrate and counterstained with eosin and hematoxylin.
# [6] = system: circulating endothelial progenitors (CEPs); assay: Endothelial progenitor assay (CFU-EC, VEGFR2+ cells); assay type: in vivo; conditions: wild type mice, elevated plasma levels
# Method: Endothelial progenitor assay. Circulating bone marrow-derived CEPs were quantified by colony forming unit-endothelial cell (CFU-EC) as previously described (Hattori et al. 2001a). Mobilized PBMCs were cultured in M199 media (GIBCO-BRL, Gaithersburg, Md.) supplemented with 20% FBS (HyClone, UT), ECGF (30 μg/ml), human FGF-basic (Sigma) and heparin. After 5 weeks of culture, adherent cells were scored for colonies (>10 cells). Endothelial colonies were identified by metabolic uptake of DiI-Acetylated-LDL (1 μg/ml; PerImmune Inc, Rockville, Md.) at 37° C. for 5 hours, and visualized fluorescence microscopy. The number of VEGFR2^+ cells was quantified by FACS using a Cy2-labeled mAb to VEGFR2 (clone DC101, ImClone, NY), (Hattori et al. 2001a).
molecule,measurement,setting,value
"O=c1[nH]cc(F)c(=O)[nH]1 [5-FU, 5-fluorouracil]",survival of 5-FU-treated mice,"[1]; MMP-9+/+, mouse, in vivo, iv",all of the MMP-9^+/+ mice survived
same,death of 5-FU-treated mice,"[1]; MMP-9−/− mice, single i.v. dose, n=16",72%
same,total number of Sca-1+ cells in S-phase,"Sca-1+ bone marrow cells; MMP-9+/+ mice, day 6 after 5-FU",2.2±0.05 ×10^5/femur
same,total number of Sca-1+ cells in S-phase,"Sca-1+ bone marrow cells; MMP-9+/+ mice, day 10 after 5-FU",11.5±0.3 ×10^5/femur
same,total number of Sca-1+ cells in S-phase,"Sca-1+ bone marrow cells; MMP-9−/− mice, day 6 after 5-FU",1.0±0.03 ×10^5/femur
same,total number of Sca-1+ cells in S-phase,"Sca-1+ bone marrow cells; MMP-9−/− mice, day 10 after 5-FU",2.1±0.04 ×10^5/femur
"c1ccc(-c2cc3cccnc3c3ncccc23)cc1 [5-phenyl-1,10-phenanthroline]",migration of CD34+ cells,human CD34+ cells,completely blocked
COc1ccc(S(=O)(=O)N(Cc2cccnc2)[C@@H](C(=O)NO)C(C)C)cc1 [CGS 27023A],white blood cell counts and chemokine-induced mobilization,[2]; MMP-9 competent mice (data not shown),decreased white blood cell counts and blocked chemokine-induced mobilization
same,migration of CD34+ cells,human CD34+ cells,completely blocked
same,release of sKitL,[3],blocked
same,mobilization of hematopoietic cells with short-term repopulating potential (CFU-S),[4],completely blocked
same,time within which all recipient mice died,[5]; recipients of PBMCs from MPI-treated mice,≤ 19 days
VEGF,plasma sKitL levels compared to untreated animals,sKitL,increased plasma sKitL levels
same,mobilization of mature white blood cells and hematopoietic progenitors (CFU-Cs),[2],mobilized mature white blood cells
same,release of pro-MMP-9 and migration of human CD34+ progenitor and stem cells,"human CD34+ cells; transwell migration assay, chemoattractant",stimulate the release of pro-MMP-9 and induce migration
same,immunoreactive MMP-9 in bone marrow stromal and hematopoietic cells,MMP-9,increased immunoreactive MMP-9
same,long-term engraftment of lethally irradiated syngeneic mice transplanted with mobilized PBMCs,[5],40%
same,"mobilization of circulating endothelial progenitors (CFU-EC, VEGFR2)",[6],increased the mobilization of circulating endothelial progenitors
B1,plasma sKitL levels compared to untreated animals,sKitL,increased plasma sKitL levels
same,mobilization of mature white blood cells and hematopoietic progenitors (CFU-Cs),[2],mobilized mature white blood cells
same,immunoreactive MMP-9 in bone marrow stromal and hematopoietic cells,MMP-9,increased immunoreactive MMP-9
same,survival of transplanted recipients,"[5]; MMP-9+/+ mice, PBMCs obtained day 5, n=8/group",100%
same,day by which all mice died,"[5]; MMP-9−/− mice treated with G-CSF, n=8/group",~18 days
same,long-term engraftment of lethally irradiated syngeneic mice transplanted with mobilized PBMCs,[5],80%
